Earlier results as cited in patent US8834942B2, “Enhanced absorption of oregano derived oils” (priority 2010, dated 2014).

Conditions: single emulsifier

For polyoxyethylene sorbitan monooleate, the HLB value is given as “about 15”.
